The text below walks through data of ChEMBL document CHEMBL4706535, “The development of Coronavirus 3C-Like protease (3CL) inhibitors from 2010 to 2020” (Eur J Med Chem, 2020).

pEC50: −log10 of the molar value.

The pEC50 is the negative decadic logarithm of the EC50, by convention in mol/L. Higher therefore signals a low EC50.

For this test, the system named is SARS-CoV-2. Kind of test: microbe, parasite or virus in culture. The conditions noted are these: Severe acute respiratory syndrome coronavirus 2, nCoV-2019 BetaCoV/Wuhan/WIV04/2019, Vero C1008.

For `O=C[C@H](C[C@@H]1CCNC1=O)NC(=O)[C@H](Cc1cccc(F)c1)NC(=O)c1cc2ccccc2[nH]1`, the pEC50 was 6.14.
